Measurements as given in patent publication US10815183B2, “Substituted aromatic compounds and pharmaceutical uses thereof” (PROMETIC PHARMA SMT LIMITED, priority 2009, dated 2020).

How the values were obtained:
bone marrow cells = experiment: Chemoprotection studies: bone marrow and blood cell counts in cyclophosphamide immunosuppressed mice (hematopoiesis/erythropoiesis); format: in vivo, C57BL/6 mice; conditions: for In Vivo Results: effect on hematopoiesis/erythropoiesis: degree of activity compared to the activity of compound I; for Red Blood Cells (10^9) / Red Bone Marrow Cells (10^6): mice, cyclophosphamide 200 mg/kg iv day 0, compound oral pre-treatment day -3, -2, -1, sacrifice day +5
Protocol: Female C57BL/6 mice, 6 to 8 week old, were immunosuppressed by treatment with 200 mg/kg of cyclophosphamide administered intravenously at day 0. To examine the immunoprotective effect of compound I, mice were pre-treated orally at day −3, −2 and −1 with the compound. Mice were sacrificed at day +5 by cardiac puncture and cervical dislocation. Then, a gross pathological observation of the femurs (as a source of bone marrow cells) was recorded. After the sacrifice, tissues were crushed in PBS buffer and cells were counted on a hemacytometer.
Additional compounds related to compound I were also prepared and tested for biological activity.

PGE2 = experiment: LPS-induced inflammation in the rat air-pouch model, PGE2 in pouch exudates by ELISA; format: in vivo, Lewis rats
From the text: LPS-induced inflammation in the rat air-pouch model is believed to mimic the pathological process occurring in joint diseases such as arthritis. This is because the connective tissues formed along the air pouch are similar to those found in chronic joint diseases. LPS-induced inflammation and chronic joint diseases share other features, including markedly elevated PGE2, neutrophil infiltration, cytokine formation, and tissue damage.
An air cavity was produced at day −6 by subcutaneous injection of 20 ml of sterile air into the […] area of the back of male Lewis rats (175-200 g). An additional 10 ml of air was injected into the cavity at day −3 to keep the space open. At day 0, compounds were administered intravenously and one hour later lipopolysaccharide (LPS: 2.5 ml, 2 μg/ml in PBS) was injected into the pouch to produce an inflammatory reaction. Two hours after treatment with LPS, animals were euthanized by CO2 asphyxiation and 5 ml of PBS/heparin (10 U/ml)/indomethacin (36 μg/ml) was injected into the pouch. The pouch fluid was collected and PGE2 was determined in the pouch exudates by ELISA.

[1] = Kidney protection in 5/6 nephrectomized (Nx) rat model, GFR (creatinine clearance); format: in vivo, Wistar rats
From the text: (§1) Male 6 week-old Wistar rats were subjected to ⅚ nephrectomy or sham operations. Under fluothane anesthesia, renal ablation was achieved by removing two-thirds of the left kidney followed by a right unilateral nephrectomy 7 days later. Sham rats underwent exposition of the kidneys and removal of the perirenal fat. Twenty-one days after the first operation, rats were randomized in the study by their reduced glomerular filtration rate (GFR) of creatinine indicating a dysfunction of the kidney. Animals that underwent the sham operation were given vehicle (saline) and were used as controls. Nx animals were divided in groups receiving the vehicle or Compound I. Saline or Compound I was given by gastric gavage once daily up to the sacrifice. GFR was measured every three weeks in order to assess the severity of this end-stage renal disease model. Rats were sacrificed at day 190.

[2] = Heart protection in 5/6 nephrectomized rats, blood pressure; format: in vivo; conditions: Nx rats (FIG. 7)
From the text: as §1

[3] = Doxorubicin-induced nephrotoxicity model: serum albumin, serum creatinine, histological kidney lesions; format: in vivo, C57Bl/6 mice; conditions: for serum creatinine increase induced by doxorubicin: mice (FIG. 9)
Protocol: (§2) C57Bl/6 mice (6-10 week-old) were treated with Compound I prophylacticly from day −3 to day 10 or treated therapeutically from day 1 to 10. Nephrotoxicity was induced by an intravenous injection of 10 mg/kg of doxorubicin at day 0. Serum albumin and creatinine were monitored at days 4, 7, 9 and 11.
Doxorubicin is well known to induce nephro- and cardiotoxicity. FIG. 10 represents the histological kidney lesions score as determined by histochemistry in the doxorubicin-induced nephrotoxicity model.
Doxorubicin induces early lesions primarily at the tubular region. Toxicity is further extended to the glomerulus (around day 11 post-doxorubicin). FIG. 11 represents the histological micrographs of doxorubicin-induced lesions in control and Compound I-treated (prophylactic treatment) mice. Doxorubicin induces kidney cell apoptosis, fibrosis, sclerosis and accumulation of proteins in affected tubular regions.

CTGF = format: in vivo, C57Bl/6 mice; conditions: pre-treatment, doxorubicin-treated mice (FIG. 12)
Protocol: as §2

TGF-β = TGF-β mRNA expression in kidneys from doxorubicin-treated mice; format: in vivo, C57Bl/6 mice
Protocol: as §2
CTGF is also regulated by TGF-β. FIG. 13 illustrates the mRNA expression of TGF-β in kidneys. Doxorubicin increases by 73% the mRNA expression of TGF-β in kidneys. Pre-treatment with Compound I induces a 26% decrease of TGF-β expression.

CCCCCc1cccc(CC(=O)[O-])c1.[Na+] [Compound I, Sodium Salt of 3-Pentylphenylacetic Acid]
circulating red blood cells (in words) (bone marrow cells; cyclophosphamide immunosuppressed mice): increases | In Vivo Results: effect on hematopoiesis/erythropoiesis (bone marrow cells): +++ (+++ designates 70 to 100% of compound I activity) | Red Blood Cells (10^9) (bone marrow cells): 7.0 10^9 | Red Bone Marrow Cells (10^6) (bone marrow cells): 11.5 10^6 | red bone marrow cell count (in words) (bone marrow cells; oral pre-treatment, cyclophosphamide immunosuppressed mice): increase | white bone marrow cell count (bone marrow cells; oral pre-treatment, cyclophosphamide immunosuppressed mice (FIG. 2)): increase | total bone marrow cell count (bone marrow cells; oral pre-treatment, cyclophosphamide treated mice (FIG. 1)): significant increase | inhibition of PGE2 compared with positive control indomethacin (PGE2; two hours after LPS): similar | inhibition of PGE2 (PGE2; two hours after administration of LPS (FIG. 3)): significant inhibition | improvement of GFR compared to initial GFR (before treatment) at day 21 ([1]; Nx rats over treatment period, Nx control 50% deterioration (FIG. 6)): 50% | improvement of GFR (creatinine clearance) ([1]; Nx rats, gastric gavage once daily, day 190 (FIG. 5)): two-fold | blood pressure [2]: significant decrease | histological kidney lesions at the tubular level induced by doxorubicin ([3]; prophylactic (pre-doxorubicin) and therapeutic (post-doxorubicin) treatments (FIG. 10)): reduce the kidney lesions | protection of the kidney against doxorubicin toxicity (histological micrographs) ([3]; prophylactic or therapeutic treatment (FIG. 11)): protects the kidney | serum albumin decrease induced by doxorubicin ([3]; prophylactic treatment day -3 to day 10, oral, mice (FIG. 8)): inhibits the decrease | serum creatinine increase induced by doxorubicin ([3]; prophylactic treatment day -3 to day 10, oral): inhibits the increase | serum albumin level induced by doxorubicin ([3]; therapeutic treatment day 1 to 10, oral, mice (FIG. 8)): no effect | serum creatinine increase induced by doxorubicin ([3]; therapeutic treatment day 1 to 10, oral): inhibits the increase | CTGF expression in kidneys (CTGF): significant decrease | decrease of TGF-β expression in kidneys (TGF-β; pre-treatment, doxorubicin-treated mice (FIG. 13)): 26%

CCC/C=C/c1cccc(CC(=O)[O-])c1.[Na+] [Compound II, Sodium Salt of E-(3-pent-1-enyl-phenyl)acetic Acid]
In Vivo Results: effect on hematopoiesis/erythropoiesis (bone marrow cells): +++ (+++ designates 70 to 100% of compound I activity)

CCCCCc1ccc(O)c(CC(=O)[O-])c1.[Na+] [Compound III, Sodium salt of (2-hydroxy-5-pentylphenyl)acetic Acid]
In Vivo Results: effect on hematopoiesis/erythropoiesis (bone marrow cells): + (+ designates 5-40% of compound I activity)

CCCCCc1cc(CCC(=O)[O-])ccc1F.[Na+] [Compound IV, Sodium Salt of 3-(4-fluoro-3-pentylphenyl)propionic Acid]
In Vivo Results: effect on hematopoiesis/erythropoiesis (bone marrow cells): +++ (+++ designates 70 to 100% of compound I activity)

CCCCc1cccc(CCC(=O)[O-])c1.[Na+] [Compound IX, Sodium Salt of 3-(3-butylphenyl)propionic Acid]
In Vivo Results: effect on hematopoiesis/erythropoiesis (bone marrow cells): ++ (++ designates 40-70% of compound I activity)

CCCCCc1cccc(CCC(=O)[O-])c1.[Na+] [Compound V, Sodium Salt of 3-(3-pentylphenyl)propionic Acid]
In Vivo Results: effect on hematopoiesis/erythropoiesis (bone marrow cells): ++ (++ designates 40-70% of compound I activity)

CCCCCc1cccc(C(C)(C)C(=O)[O-])c1.[Na+] [Compound VI, Sodium Salt of 2-Methyl-2-(3-pentylphenyl)propionic Acid]
In Vivo Results: effect on hematopoiesis/erythropoiesis (bone marrow cells): ++ (++ designates 40-70% of compound I activity)

CCCCCc1cccc(C(CO)C(=O)[O-])c1.[Na+] (stereo not drawn) [Compound VII, Sodium Salt of 3-Hydroxy-2-(3-pentyl-phenyl)propionic Acid]
In Vivo Results: effect on hematopoiesis/erythropoiesis (bone marrow cells): +++ (+++ designates 70 to 100% of compound I activity)

CCCCCc1cccc(C(C)C(=O)[O-])c1.[Na+] (stereo not drawn) [Compound VIII, Sodium Salt of 2-(3-pentylphenyl)propionic Acid]
In Vivo Results: effect on hematopoiesis/erythropoiesis (bone marrow cells): ++ (++ designates 40-70% of compound I activity)

C/C=C\CCc1cccc(CC(=O)[O-])c1.[Na+] [Compound X, Sodium Salt of E/Z-(3-Pent-3-enylphenyl)acetic Acid]
In Vivo Results: effect on hematopoiesis/erythropoiesis (bone marrow cells): +++ (+++ designates 70 to 100% of compound I activity)

CCCCCc1cc(O)cc(CC(=O)[O-])c1.[Na+] [Compound XI, Sodium Salt of [3-Hydroxy-5-pentylphenyl]acetic acid]
In Vivo Results: effect on hematopoiesis/erythropoiesis (bone marrow cells): ++++ (++++ designates greater activity than compound I)

CCCCCc1ccc(C(=O)[O-])cc1.[Na+] [Compound XII, Sodium Salt of 4-Pentylbenzoic Acid]
In Vivo Results: effect on hematopoiesis/erythropoiesis (bone marrow cells): ++ (++ designates 40-70% of compound I activity)

CCCCCCc1cccc(C(=O)[O-])c1.[Na+] [Compound XIII, Sodium Salt of 3-Hexylbenzoic Acid]
In Vivo Results: effect on hematopoiesis/erythropoiesis (bone marrow cells): +++ (+++ designates 70 to 100% of compound I activity)

CCCCc1ccc2c(c1)CC(C(=O)[O-])C2.[Na+] (stereo not drawn) [Compound XIV, Sodium Salt of 5-Butylindan-2-carboxylc Acid]
In Vivo Results: effect on hematopoiesis/erythropoiesis (bone marrow cells): ++ (++ designates 40-70% of compound I activity)

O=P1(N(CCCl)CCCl)NCCCO1 (stereo not drawn) [Cyclophosphamide, reference compound]
Red Blood Cells (10^9) (bone marrow cells): 5.7 10^9 | Red Bone Marrow Cells (10^6) (bone marrow cells): 8.1 10^6

COc1cccc2c1C(=O)c1c(O)c3c(c(O)c1C2=O)C[C@@](O)(C(=O)CO)C[C@@H]3O[C@H]1C[C@H](N)[C@H](O)[C@H](C)O1 [Doxorubicin, reference compound]
histological kidney lesions induced ([3]; doxorubicin 10 mg/kg iv day 0, mice, day 7 and 11): significant kidney lesions | increase of mRNA expression of TGF-β in kidneys (TGF-β; doxorubicin 10 mg/kg iv, mice): 73%

CCCCCc1cccc(CC(=O)[O-])n1.[Na+] [XVI]
In Vivo Results: effect on hematopoiesis/erythropoiesis (bone marrow cells): ++ (++ designates 40-70% of compound I activity)

CCCC/C=C/c1cccc(CC(=O)[O-])c1.[Na+] [XV]
In Vivo Results: effect on hematopoiesis/erythropoiesis (bone marrow cells): ++ (++ designates 40-70% of compound I activity)
